Test results published in patent US6737383B1, “Herbicidal oxadiazolidines” (priority 1999, dated 2004).

Columns and labels:
surinam grass = assay: Test B pre/postemergence surinam grass; assay type: in vivo, Brachiaria decumbens; settings: for B. signalgrass plant response rating: scale of 0 to 10 where 0 is no effect and 10 is complete control
Procedure, shortened: (§1)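 Test chemicals in a non-phytotoxic solvent mixture with surfactant were sprayed preemergence onto planted seeds and postemergence onto plants 2 to 18 cm tall (1- to 4-leaf stage). After twelve to sixteen days in a greenhouse, injury was visually rated against untreated controls from 0 (no effect) to 10 (complete control).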

purple nutsedge = assay: Test B pre/postemergence purple nutsedge; assay type: in vivo, Cyperus rotundus; settings: for Nutsedge plant response rating: scale of 0 to 10 where 0 is no effect and 10 is complete control
Procedure, shortened: as §1

duck salad = assay: Test B flood test duck salad; assay type: in vivo, Heteranthera limosa
Procedure, shortened: (§2)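 Plants were grown to the 2-leaf stage before treatment with test chemical, then held in a greenhouse for twelve to sixteen days. Injury was visually rated against untreated controls on a 0–10 scale, where 0 is no effect and 10 is complete control.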

blackgrass = assay: Test B pre/postemergence blackgrass; assay type: in vivo, Alopecurus myosuroides; settings: for Blackgrass plant response rating: scale of 0 to 10 where 0 is no effect and 10 is complete control
Procedure, shortened: as §1

wheat = assay: Test B pre/postemergence wheat; assay type: in vivo, Triticum aestivum; settings: for Wheat plant response rating: scale of 0 to 10 where 0 is no effect and 10 is complete control
Procedure, shortened: as §1

bamyardgrass = assay: Test B flood test barnyardgrass; assay type: in vivo, Echinochloa crus-galli
Procedure, shortened: as §2

smallflower flatsedge = assay: Test B flood test smallflower flatsedge; assay type: in vivo, Cyperus difformis
Procedure, shortened: as §2

sugar beet = assay: Test B pre/postemergence sugar beet; assay type: in vivo, Beta vulgaris; settings: for Sugarbeets plant response rating: scale of 0 to 10 where 0 is no effect and 10 is complete control
Procedure, shortened: as §1

giant foxtail = assay: Test B pre/postemergence giant foxtail; assay type: in vivo, Setaria faberii; settings: for Giant foxtail plant response rating: scale of 0 to 10 where 0 is no effect and 10 is complete control
Procedure, shortened: as §1

cocklebur = assay: Test B pre/postemergence cocklebur; assay type: in vivo, Xanthium strumarium; settings: for Cocklebur plant response rating: scale of 0 to 10 where 0 is no effect and 10 is complete control
Procedure, shortened: as §1

wild oat = assay: Test B pre/postemergence wild oat; assay type: in vivo, Avena fatua; settings: for Wild oats plant response rating: scale of 0 to 10 where 0 is no effect and 10 is complete control
Procedure, shortened: as §1

soybean = assay: Test B pre/postemergence soybean; assay type: in vivo, Glycine max; settings: for Soybean plant response rating: scale of 0 to 10 where 0 is no effect and 10 is complete control
Procedure, shortened: as §1

rape = assay: Test B pre/postemergence rape; assay type: in vivo, Brassica napus; settings: for Rape plant response rating: scale of 0 to 10 where 0 is no effect and 10 is complete control
Procedure, shortened: as §1

morningglory = assay: Test B pre/postemergence morningglory; assay type: in vivo, Ipomoea hederacea; settings: for Morningglory plant response rating: scale of 0 to 10 where 0 is no effect and 10 is complete control
Procedure, shortened: as §1

pigweed = assay: Test B pre/postemergence pigweed; assay type: in vivo, Amaranthus retroflexus; settings: for Redroot pigweed plant response rating: scale of 0 to 10 where 0 is no effect and 10 is complete control
Procedure, shortened: as §1

[1] = Postemergence, Rate 125 g/ha, scale 0 to 10, 0 is no effect, 10 is complete control
[2] = Postemergence, Rate 250 g/ha, scale 0 to 10, 0 is no effect, 10 is complete control
[3] = Preemergence, Rate 62 g/ha, scale 0 to 10 (0 no effect, 10 complete control)
[4] = Rate 500 g/ha, Postemergence, scale 0 to 10, 0 no effect, 10 complete control
[5] = Postemergence (flood test), Rate 125 g/ha, scale 0 to 10, 0 is no effect, 10 is complete control
[6] = Rate 62 g/ha, Postemergence (flood test species), scale of 0 to 10 where 0 is no effect and 10 is complete control
[7] = Rate 62 g/ha, flood test species, Pre-emergence, visual evaluation after twelve to sixteen days
[8] = Rate 125 g/ha, Pre-emergence, flood test species, scale 0 to 10 where 0 is no effect and 10 is complete control
[9] = Rate 250 g/ha, Pre-emergence, flood-test species, scale 0 to 10, 0 is no effect, 10 is complete control
[10] = Rate 500 g/ha, listed under Postemergence (flood test species), scale 0 to 10, 0 no effect, 10 complete control
[11] = Rate 500 g/ha, Pre-emergence, flood test species, scale 0 to 10 (0 no effect, 10 complete control)
[12] = flood test species, listed under Postemergence, Rate 250 g/ha, scale 0 to 10, 0 is no effect, 10 is complete control

For CC1CC1n1c(=O)on(C(=O)N(c2ccc(Cl)cc2)C(C)C)c1=O (stereo not drawn) [Compound 369], the “Plant response rating, B. signalgrass” value (surinam grass; [1]) was 0, the “Plant response rating, B. signalgrass” value (surinam grass; [2]) was 0 and the “Plant response rating, B. signalgrass” value (surinam grass; [3]) was 0. The “B. signalgrass plant response rating (0 to 10 scale, 0 is no effect, 10 is complete control)” value (surinam grass; Preemergence, Rate 125 g/ha) was 0, the “B. signalgrass plant response rating” value (surinam grass; Preemergence, Rate 250 g/ha) was 2 and the “B. signalgrass plant response rating” value (surinam grass; Preemergence, Rate 500 g/ha) was 2. The “B. signalgrass plant response rating” value (surinam grass; Rate 62 g/ha, Postemergence) was 0, the “Plant response rating, B. signalgrass” value (surinam grass; [4]) was 3 and the “Plant response rating, Nutsedge” value (purple nutsedge; [1]) was 0. For the same molecule, the “Plant response rating, Nutsedge” value (purple nutsedge; [2]) was 0, the “Plant response rating, Nutsedge” value (purple nutsedge; [3]) was 0 and the “Nutsedge plant response rating (0 to 10 scale)” value (purple nutsedge; Preemergence, Rate 125 g/ha) was 0. For the same molecule, the “Nutsedge plant response rating” value (purple nutsedge; Preemergence, Rate 250 g/ha) was 0, the “Nutsedge plant response rating” value (purple nutsedge; Preemergence, Rate 500 g/ha) was 5 and the “Nutsedge plant response rating” value (purple nutsedge; Rate 62 g/ha, Postemergence) was 0. The “Plant response rating, Nutsedge” value (purple nutsedge; [4]) was 3, the “Plant response rating, Ducksalad” value (duck salad; [5]) was 0 and the “Ducksalad plant response rating” value (duck salad; [6]) was 0. The “Plant response rating, Ducksalad (0 to 10 scale, 0 is no effect, 10 is complete control)” value (duck salad; [7]) was 0, the “Ducksalad plant response rating” value (duck salad; [8]) was 0 and the “Ducksalad plant response rating” value (duck salad; [9]) was 0. The “Plant response rating, Ducksalad” value (duck salad; [10]) was 2, the “Ducksalad plant response rating” value (duck salad; [11]) was 0 and the “Plant response rating, Ducksalad” value (duck salad; [12]) was 2. The “Plant response rating, Blackgrass” value (blackgrass; [1]) was 0, the “Plant response rating, Blackgrass” value (blackgrass; [2]) was 5 and the “Plant response rating, Blackgrass” value (blackgrass; [3]) was 0. For the same molecule, the “Blackgrass plant response rating (0 to 10 scale)” value (blackgrass; Preemergence, Rate 125 g/ha) was 0, the “Blackgrass plant response rating” value (blackgrass; Preemergence, Rate 250 g/ha) was 2 and the “Blackgrass plant response rating” value (blackgrass; Preemergence, Rate 500 g/ha) was 5. For the same molecule, the “Blackgrass plant response rating” value (blackgrass; Rate 62 g/ha, Postemergence) was 0, the “Plant response rating, Blackgrass” value (blackgrass; [4]) was 5 and the “Plant response rating, Wheat” value (wheat; [1]) was 0. For the same molecule, the “Plant response rating, Wheat” value (wheat; [2]) was 0, the “Plant response rating, Wheat” value (wheat; [3]) was 0 and the “Wheat plant response rating (0 to 10 scale)” value (wheat; Preemergence, Rate 125 g/ha) was 0. For the same molecule, the “Wheat plant response rating” value (wheat; Preemergence, Rate 250 g/ha) was 0, the “Wheat plant response rating” value (wheat; Preemergence, Rate 500 g/ha) was 0 and the “Wheat plant response rating” value (wheat; Rate 62 g/ha, Postemergence) was 0. For the same molecule, the “Plant response rating, Wheat” value (wheat; [4]) was 4, the “Plant response rating, Barnyardgrass” value (bamyardgrass; [5]) was 0 and the “Barnyardgrass plant response rating” value (bamyardgrass; [6]) was 0. For the same molecule, the “Plant response rating, Barnyardgrass (0 to 10 scale, 0 is no effect, 10 is complete control)” value (bamyardgrass; [7]) was 0, the “Barnyardgrass plant response rating” value (bamyardgrass; [8]) was 0 and the “Barnyardgrass plant response rating” value (bamyardgrass; [9]) was 0. The “Plant response rating, Barnyardgrass” value (bamyardgrass; [10]) was 2, the “Barnyardgrass plant response rating” value (bamyardgrass; [11]) was 0 and the “Plant response rating, Barnyardgrass” value (bamyardgrass; [12]) was 0. For the same molecule, the “Plant response rating, S. Flatsedge” value (smallflower flatsedge; [5]) was 2, the “S. Flatsedge plant response rating” value (smallflower flatsedge; [6]) was 0 and the “Plant response rating, S. Flatsedge (0 to 10 scale, 0 is no effect, 10 is complete control)” value (smallflower flatsedge; [7]) was 0. The “S. Flatsedge plant response rating” value (smallflower flatsedge; [8]) was 0, the “S. Flatsedge plant response rating” value (smallflower flatsedge; [9]) was 0 and the “Plant response rating, S. Flatsedge” value (smallflower flatsedge; [10]) was 4. The “S. Flatsedge plant response rating” value (smallflower flatsedge; [11]) was 0, the “Plant response rating, S. Flatsedge” value (smallflower flatsedge; [12]) was 2 and the “Plant response rating, Sugarbeets” value (sugar beet; [1]) was 0. The “Plant response rating, Sugarbeets” value (sugar beet; [2]) was 0, the “Plant response rating, Sugarbeets” value (sugar beet; [3]) was 0 and the “Sugarbeets plant response rating (0 to 10 scale)” value (sugar beet; Preemergence, Rate 125 g/ha) was 0. The “Sugarbeets plant response rating” value (sugar beet; Preemergence, Rate 250 g/ha) was 2, the “Sugarbeets plant response rating” value (sugar beet; Preemergence, Rate 500 g/ha) was 4 and the “Sugarbeets plant response rating” value (sugar beet; Rate 62 g/ha, Postemergence) was 0. For the same molecule, the “Plant response rating, Sugarbeets” value (sugar beet; [4]) was 2, the “Plant response rating, Giant foxtail” value (giant foxtail; [1]) was 0 and the “Plant response rating, Giant foxtail” value (giant foxtail; [2]) was 2. The “Plant response rating, Giant foxtail” value (giant foxtail; [3]) was 8, the “Giant foxtail plant response rating (0 to 10 scale)” value (giant foxtail; Preemergence, Rate 125 g/ha) was 9 and the “Giant foxtail plant response rating” value (giant foxtail; Preemergence, Rate 250 g/ha) was 10. For the same molecule, the “Giant foxtail plant response rating” value (giant foxtail; Preemergence, Rate 500 g/ha) was 10, the “Giant foxtail plant response rating” value (giant foxtail; Rate 62 g/ha, Postemergence) was 0 and the “Plant response rating, Giant foxtail” value (giant foxtail; [4]) was 9. The “Plant response rating, Cocklebur” value (cocklebur; [1]) was 0, the “Plant response rating, Cocklebur” value (cocklebur; [2]) was 0 and the “Plant response rating, Cocklebur” value (cocklebur; [3]) was 0. For the same molecule, the “Cocklebur plant response rating (0 to 10 scale)” value (cocklebur; Preemergence, Rate 125 g/ha) was 0, the “Cocklebur plant response rating” value (cocklebur; Preemergence, Rate 250 g/ha) was 0 and the “Cocklebur plant response rating” value (cocklebur; Preemergence, Rate 500 g/ha) was 0. For the same molecule, the “Cocklebur plant response rating” value (cocklebur; Rate 62 g/ha, Postemergence) was 0, the “Plant response rating, Cocklebur” value (cocklebur; [4]) was 0 and the “Plant response rating, Wild oats” value (wild oat; [1]) was 0. The “Plant response rating, Wild oats” value (wild oat; [2]) was 0, the “Plant response rating, Wild oats” value (wild oat; [3]) was 0 and the “Wild oats plant response rating (0 to 10 scale)” value (wild oat; Preemergence, Rate 125 g/ha) was 0. For the same molecule, the “Wild oats plant response rating” value (wild oat; Preemergence, Rate 250 g/ha) was 0, the “Wild oats plant response rating” value (wild oat; Preemergence, Rate 500 g/ha) was 7 and the “Wild oats plant response rating” value (wild oat; Rate 62 g/ha, Postemergence) was 0. The “Plant response rating, Wild oats” value (wild oat; [4]) was 4, the “Plant response rating, Soybean” value (soybean; [1]) was 0 and the “Plant response rating, Soybean” value (soybean; [2]) was 1. For the same molecule, the “Plant response rating, Soybean” value (soybean; [3]) was 0, the “Soybean plant response rating (0 to 10 scale)” value (soybean; Preemergence, Rate 125 g/ha) was 0 and the “Soybean plant response rating” value (soybean; Preemergence, Rate 250 g/ha) was 0. For the same molecule, the “Soybean plant response rating” value (soybean; Preemergence, Rate 500 g/ha) was 4, the “Soybean plant response rating” value (soybean; Rate 62 g/ha, Postemergence) was 0 and the “Plant response rating, Soybean” value (soybean; [4]) was 1. The “Plant response rating, Rape” value (rape; [1]) was 0, the “Plant response rating, Rape” value (rape; [2]) was 0 and the “Plant response rating, Rape” value (rape; [3]) was 0. The “Rape plant response rating (0 to 10 scale)” value (rape; Preemergence, Rate 125 g/ha) was 0, the “Rape plant response rating” value (rape; Preemergence, Rate 250 g/ha) was 2 and the “Rape plant response rating” value (rape; Preemergence, Rate 500 g/ha) was 5. For the same molecule, the “Rape plant response rating” value (rape; Rate 62 g/ha, Postemergence) was 0, the “Plant response rating, Rape” value (rape; [4]) was 3 and the “Plant response rating, Morningglory” value (morningglory; [1]) was 10. The “Plant response rating, Morningglory” value (morningglory; [2]) was 10, the “Plant response rating, Morningglory” value (morningglory; [3]) was 0 and the “Morningglory plant response rating (0 to 10 scale)” value (morningglory; Preemergence, Rate 125 g/ha) was 0. For the same molecule, the “Morningglory plant response rating” value (morningglory; Preemergence, Rate 250 g/ha) was 0, the “Morningglory plant response rating” value (morningglory; Preemergence, Rate 500 g/ha) was 0 and the “Morningglory plant response rating” value (morningglory; Rate 62 g/ha, Postemergence) was 7. The “Plant response rating, Morningglory” value (morningglory; [4]) was 10, the “Plant response rating, Redroot pigweed” value (pigweed; [1]) was 0 and the “Plant response rating, Redroot pigweed” value (pigweed; [2]) was 0. For the same molecule, the “Plant response rating, Redroot pigweed” value (pigweed; [3]) was 0, the “Redroot pigweed plant response rating (0 to 10 scale)” value (pigweed; Preemergence, Rate 125 g/ha) was 4 and the “Redroot pigweed plant response rating” value (pigweed; Preemergence, Rate 250 g/ha) was 10. For the same molecule, the “Redroot pigweed plant response rating” value (pigweed; Preemergence, Rate 500 g/ha) was 10, the “Redroot pigweed plant response rating” value (pigweed; Rate 62 g/ha, Postemergence) was 0 and the “Plant response rating, Redroot pigweed” value (pigweed; [4]) was 4.
